Source: patent publication US11927589B2, “Carrier peptide fragment for nucleolar localization and use thereof” (TOAGOSEI CO., LTD., priority 2021, dated 2024)
FAM = FAM: 5(6)-carboxyfluorescein, a fluorescent dye

Tests used:
HeLa cells [1] = experiment: Evaluation of cell membrane permeability by flow cytometry (Test 1); settings: 10 μM, 20 hours incubation
Description: HeLa cells were cultured in a DMEM (Dulbecco's modified Eagle's medium (Cat No. 043-30085 commercially available from FUJIFILM Wako Pure Chemical Corporation)) containing 10% FBS (fetal bovine serum), which is a general culture medium.
HeLa cells adhered to a culture plate were washed with PBS and a 0.25% trypsin/EDTA solution was then added, and the cells were incubated at 37° C. for 3 minutes. After the incubation, a 10% FBS-containing DMEM was added, trypsin was inactivated, and centrifugation was then performed at 150×g for 5 minutes to precipitate cells. […]
For the obtained cells (cell pellets), the cell permeability of Sample 1 was analyzed using a flow cytometer. […]
Using the flow cytometer, gating was performed based on forward scatter (FSC) and side scatter (SSC), a gate was set for a cell population to be analyzed, and the fluorescent intensity was measured for the cell population within such a gate. […] For measurement of the fluorescent intensity, a fluorescence detector FL2 (optimal detection wavelength of about 543 nm) of the flow cytometer that can detect a fluorescence wavelength of FAM was used. The measurement results were analyzed using commercially available analysis software “FlowJo (registered trademark)” (commercially available from TreeStar) to obtain a mean fluorescent intensity (MFI) of the cell population to be measured.

[2] = Cytotoxicity examination by the inventors; type: cell-based
Description: In all of the amino acid sequences shown in SEQ ID NOs 1 to 4, 11 amino acid residues among 13 amino acid residues are composed of basic amino acids (arginine and lysine). […] On the other hand, in the carrier peptide fragment composed of any of the amino acid sequences shown in SEQ ID NOs 1 to 4, the inventors have confirmed through examination that, even if the concentration of the carrier peptide fragment is 100 μM, there is almost no cytotoxicity, and the cytotoxicity is much lower than that of R8. […] Although the details of the mechanism are not clear, in the carrier peptide fragment disclosed here, it is estimated that inclusion of a threonine residue and a leucine residue which are neutral amino acids at the 4th and 5th positions in addition to basic amino acids contributes to reduction of cytotoxicity.

HeLa cells [3] = experiment: Intracellular localization by confocal laser scanning microscopy (Test 2); type: cell-based, human; settings: 5 μM, 20 hours, methanol-fixed, DAPI/FAM merged images
Description: In this test, localization of Samples 1 to 5 in HeLa cells was analyzed. HeLa cells were seeded on collagen-coated 8-well slides at about 2×10^4 cells/well, and cultured overnight in the presence of 5% CO2 at 37° C. A 10% FBS-containing DMEM was used as the cell culture solution.
Then, the supernatant (culture solution) was removed, ice-cooled PBS was added, and washing on ice was performed three times. Then, ice-cooled methanol was added, the sample was left at −20° C. for 10 minutes, and the cells were immobilized. Then, methanol was removed, and washing was then performed three times with ice-cooled PBS. Then, a DAPI-containing encapsulant (commercially available from ThemoFisher Scientific) and a cover glass were used for encapsulation and fluorescence observation was performed under a confocal laser scanning microscope. […] Here, all FIGS. 2A to 2E show images in which fluorescent images of DAPI and FAM were merged.

## 5(6)-carboxyfluorescein [Example 6]
HeLa cells [1]; flow cytometer FL2
  relative value of MFI (mean fluorescent intensity), MFI value of Example 6 set to 1: 1

## N=C(N)NCCC[C@H](NC(=O)[C@H](CCCNC(=N)N)NC(=O)[C@H](CCCNC(=N)N)NC(=O)[C@H](CCCNC(=N)N)NC(=O)[C@H](CCCNC(=N)N)NC(=O)[C@H](CCCNC(=N)N)NC(=O)[C@H](CCCNC(=N)N)NC(=O)[C@@H](N)CCCNC(=N)N)C(=O)O [Example R8, octaarginine]
[2]
  cytotoxicity: relatively high

## Ac-KKRTLRKKKRKKR-FAM (Ac-KKRTLRKKKRKKR-{FAM}) [Example 1]
HeLa cells [1]
  MFI value compared with the MFI value of Example 5: more than three times as high

## Ac-KKRTLRKNDRKKR-FAM (Ac-KKRTLRKNDRKKR-{FAM}) [Example 5]
HeLa cells [3]
  fluorescence of FAM observed in the nucleolus: slightly observed in the nucleolus
